Converted amounts (≈) assume the structure as drawn. Where two headings read alike, the source gives them in different places. Marks after values point to notes of the source that are not given here.
How the values were obtained:
root knot nematode (RKN) [1] = assay: RKN greenhouse soil assay on cucumber plants; assay type: in vivo; conditions: Radex emulsifiable concentrate formulation (6.25% active ingredient)
root knot nematode (RKN) [2] = assay: RKN greenhouse soil assay on cucumber plants; assay type: in vivo; conditions: for percent control (galling reduction), Acetone 1 mg/kg: Acetone formulation (10% acetone in 0.05% Triton X 100)
Excerpt: Cucumber seeds are planted in a sandy soil mixture in two inch square plastic pots. When the cotyledons are fully opened and just as the first leaf begins to emerge, usually 7 days after planting, chemistry for the 7 day treatment is applied. One week later the chemistry for the 0 day treatment is applied. Separate plants are used for each application. The plants are generally in the 1-2 leaf stage now. At least four hours after the chemistry application the pots are inoculated with root knot nematode (RKN) eggs. Plants are rated for galling 14 days after the egg inoculation.
(§1) One milligram of chemistry per four pots is equal to one kilogram per hectare of chemical. A standard test uses four replications. For rates above 2 kg/ha, the desired amount of chemical is weighed into a 30 ml vial (example: 8 kg/ha rate =8 mg chemical in 30 ml vial). The chemical is dissolved in 2 ml of appropriate solvent, generally acetone. For rates below 2 kg/ha, 2 milligrams of chemistry is weighed into the vial and dissolved in 2 ml of the solvent. The appropriate amount of chemical concentrate is then pipetted into a separate 30 ml vial and solvent is added to bring the volume to 2 ml (example 0.5 kg/ha=0.5 ml of concentrate+1.5 ml solvent). Each dissolved concentrate is then brought to a total of 20 milliliters using 0.05% Triton X 100 surfactant solution.
(§2) Pots to be treated are moist but not saturated. To each of four pots, five milliliters of the appropriate chemical solution is pipetted to the media surface making sure to avoid contact with the base of the plant. Immediately following chemical application, using a mist nozzle, the pot surface is wetted sufficiently to saturate the pot watering in the chemistry. The chemical application is done in the morning.
(§3) Nematode eggs, either SCN or RKN, are added to distilled water to create a concentration of 1000 vermiform eggs […]. At least four hours after chemical treatment the eggs are applied to the treated pots plus non-treated check plants. A small hole about 1 cm deep is punched into the pot surface. One milliliter of the nematode egg slurry is pipetted into the hole. Immediately afterwards the hole is gently covered. Watering of the test plants is then restricted to only water as needed to prevent wilt for a period of 24 hours. After the 24 hour restricted watering, normal sub-irrigation watering is done for the duration of the test.

[3] = tested on: soybean cyst nematode (SCN); assay: SCN greenhouse sand assay on soybean plants; assay type: in vivo; conditions: Glycine max, 672 h, read-out: percent control (cyst number reduction) relative to the control blank treatment
Excerpt: Soybeans seeds are planted in 100% sand in two inch square plastic pots. Chemical treatment is done when the soybeans show the first trifoliate beginning to emerge about 10 to 12 days after planting. At least four hours after chemical application the nematode soybean cyst nematode (SCN) eggs are applied and 28 days after the egg inoculation the test is harvested.
as §1, §2, §3

Meloidogyne incognita [4] = assay: M. incognita miniaturized greenhouse assay on cucumber seedlings; assay type: in vivo; conditions: 1 ppm
Description: The test compound is dissolved in an acetone solution and added to water. A sprouted cucumber seedling is placed into a vial with dry sand and the water-chemical solution is added immediately. Twenty four hours later Meloidogyne incognita eggs are added to the vials and 10 to 12 days later the roots are evaluated for nematode galling.
Cucumber seeds are sprouted for 3 days in moist paper towels. Acceptable sprouts should be 3 to 4 cm long with several lateral roots just emerging. Stock solutions of chemistry are prepared in a mixture of acetone and Triton X100 (412 mg in 500 mL) to a final concentration of 5 mg/mL. The chemical stock solution is then added to 10 mL deionized water plus 0.015% Triton X100 and mixed thoroughly. This is enough to test each condition in triplicate. Ten mL dry sand is added to each vial. At this time the solubility of the chemistry is visually determined and recorded as either ppt (large precipitates) or cloudy (fine precipitates). Seedlings are planted by tilting the vial and laying the seedling in the correct orientation so that the cotyledons are just above the sand and then tilting back to cover the radicles with sand. 3.3 ml water/chemical mix is added to each vial and the vials placed in racks under fluorescent light banks. The vials are inoculated two days after planting by adding 500 vermiform M. incognita eggs to each vial in 50 uL of deionized or spring water. The vials are then kept under the fluorescent lamps at ambient room temperature and watered as needed with 1mL deionized water, usually twice during duration of test. Harvest of the cucumber plants is done 10 to 12 days after inoculation by washing sand off the roots. A root gall rating and visual phytotoxicity rating is assigned using the following scales: Gall rating scale (Gall: % root mass galled): 0=0-5%; 1=6-20%; 2=21-50%; and 3=51-100%. The average of the triplicate gall rating is then calculated: green=0.00-0.33 (no galls); yellow=0.67-1.33 (mild galling); orange=1.67-2.33 (moderate galling); red=2.67-3.00 (severe galling). Visual phytotoxicity scale is also assigned (Vis. tox; visual reduction in root mass compared to the control): rs1=mild stunting; rs2=moderate stunting; rs3=severe stunting.

Meloidogyne incognita [5] = assay: Fall nematicidal field test on squash
Description: The soil was a native prairie/pasture covering silty clay loam soil. […] Total volume of each hole was about 1.2 cubic feet. […] Holes were filled and then re-filled 5 days later after settling. […] Organic matter was 0.2% and pH was 6.8.
Treatments were arranged in a block design with the blocks laid out perpendicular to the primary slope and parallel to secondary slope. There are 7 inoculated controls and 5 non-inoculated controls and the distributions of disease severity appeared independent of location.
The resultant mix is the same as used in the standard greenhouse assays (10% acetone, 0.05% X100). The oxamyl treatments were prepared from Vydate 2L formulated the same way. The 500 ml was placed in a watering can and the entire volume was evenly sprinkled over the surface of the plot. No runoff occurred and pooling, if any, was short lived. The final drench volume was 0.58 ml/cm^2, compared to 0.2 ml/cm^2 used in our greenhouse, however the microplots are much deeper so the drench volume applied per soil volume treated is roughly the same.
Meloidogyne incognita eggs were harvested over a two week period and stored at approximately 5° C. until needed. A stock of 5.6 million vermiform eggs was adjusted to 9000/m1 in 620 ml. One day after treatment, two holes were made in each plot about 7 cm apart and equidistant from the squash plants. Five ml of egg suspension was pipetted into each hole, which was then sealed and the plot lightly watered. A total of 90,000 vermiform eggs were added to each plot.
The first root evaluation was at 28 DAT. The tops were cut off and weighed immediately in the field, and the roots were carefully dug out so as not to disturb the remaining plant.

root knot nematode = assay: Pre-plant incorporated (PPI) greenhouse test of root knot nematode on cucumber plants; assay type: in vivo; conditions: for pest or weed control at 4000 g/ha: 4 kg/ha, read-out: percent control (galling reduction), 4 kg/ha rate; for pest or weed control at 8000 g/ha: 8 ka/ha, read-out: percent control (galling reduction), 8 ka/ha rate
Excerpt: The PPI test examines the effect of pre-incorporation of compounds in soil and longer aging to simulate in furrow methods of nematicide application in the field. The PPI test exposes compounds to a higher volume of soil and drying which can result in more severe soil binding. Compounds are also aged for longer periods which can lead to more extensive biotic and abiotic degradation further limiting activity.
The chemically treated soil (sandy soil mix) for all treatment days (e.g., 7 days, 14 days, 21 days) treatments is potted into their appropriate pots. On the same day the 7 day treatment pots are seeded. One week later eggs are applied and 14 days after egg application the test is harvested. The 14 day treatments are planted 7 days after the first planting. The 14 day planting and 7 day inoculation happen on the same day. One week later the 14 day treatments are inoculated with eggs. These are harvested 14 days after the inoculation. The 21 day treatments are planted 14 days after the first planting. The 14 day inoculation and 21 day planting are done on the same day. One week later the 21 day plants are inoculated with eggs. The 7 day treatment is harvested the same day as the 21 day inoculation. Fourteen days after inoculation the 21 day plants are harvested.
For each compound a stock is prepared using 4 mg material in 4 ml of acetone. The soil is mixed by placing 80 ml of field soil and 320 ml of sand in a plastic bag and mixing well. The formulation for treatment is done by adding 2.13 ml (8 kg/ha rate), 1.06 ml (4 kg/ha rate) or 0.53 ml (2 kg/ha rate) to a vial and raising it with 10 ml in 0.05% X100. Soil is then treated by adding the entire 10 ml to the 400 ml of mix in the bag. The treated soil is immediately mixed well in the sealed bag to distribute the compound evenly. Approximately 95 ml is used to fill each 2-inch square pot up to the top with some soil compression and flattening. For each compound and for the control treatments 4 pots are filled. All pots are watered until moist but with no run-out through the bottom.
The PPI test simulates 8, 4 and 2 kg/ha rates incorporated 15 cm deep in the field and is equivalent to the 2, 1 and 0.5 kg/ha drench application rates in the standard 2-inch pot cucumber greenhouse assay.

[6] = assay type: in vivo
Description: Acute oral toxicity testing was performed in mice in accordance with test method P203.UDP, as administered by Eurofins/Product Safety Laboratories (Dayton, New Jersey). CD-1/Swiss derived albino mice were obtained and group housed in suspended solid bottom caging. The mice were fed rodent chow and filtered tap water was supplied ad libitum. Following acclimation to the laboratory setting, a group of animals was fasted overnight by removing food from the cages. After the fasting period, three female mice were selected based on vitality and initial body weights. The individual compound doses were calculated from these body weights.
The test substance was prepared as a 1% (50 mg/kg) or 5% (500 mg/kg) weight to weight (w/w) mixture in a 0.5% w/w solution of carboxymethylcellulose (CMC) in distilled water. A tissue homogenizer was used to create a homogeneous mixture. A dose of 50 or 500 mg/kg was administered to three healthy mice per dose level by oral intubation using a ball-tipped gavage needle attached to a syringe. After administration, the animals were returned to their cages, and feed was replaced immediately after dosing.
Body weights were recorded prior to initiation and on Days 7 and 14 or a soon as possible after death.

C. elegans = assay: Three day C. elegans well assay; assay type: in vivo; conditions: Caenorhabditis elegans
Description: Various compounds were tested for nematicidal activity against C. elegans using contact assays in wells. The assays were performed as described below. The test compounds were solubilized in DMSO at 10 mg/ml to create 100× stock solutions. A dilution series was created by diluting the stock solution with DMSO. For each well assay 4 ul of the appropriate dilution is added to a well of a test plate. A 400 ul aliquot of bacterial stock (in M9 buffer with ampicillin and nystatin) are added to each well of the test plate. Worms are added and the test plate placed on a rotary shaker and held at 20° C. Worms are examined and scored at 4 hrs, 24 hrs, 48 hrs and 72 hours. L1 worms and L4 worms were used in the assay. L1 worms are prepared by plating eggs on a plate without a bacterial feeding layer. The eggs hatch and arrest at the L1 stage. This L1 stage population is then used to create a stock for the experiments. To create an L4 stage stock a small number of worms are taken from an overgrown and starved plate of worms and seeded on a plate with a bacterial feeder layer. A 25 ul aliquot of worms is added to each well in the assay.

[7] = 504 h, twenty one day pre-plant incorporated
[8] = 336 h, fourteen day pre-plant incorporated, test a
[9] = fourteen day pre-plant incorporated, test a

Structure (SMILES): Brc1ccc(-c2noc(-c3cccs3)n2)cc1 [compound 1846]
- percent control (galling reduction), Radex 1 mg/kg (root knot nematode (RKN) [1]): 86%
- percent control (galling reduction), Acetone 1 mg/kg (root knot nematode (RKN) [2]): 88%

Structure (SMILES): Brc1ccc(-c2cnc(-c3cccs3)o2)cc1 [compound 4776]
- pest or weed control at 500 g/ha ([3]; 0.5 kg/ha, test c): 78%
- pest or weed control at 1000 g/ha ([3]; 1 kg/ha, test c): 89%
- pest or weed control at 2000 g/ha ([3]; 2 kg/ha, test a): 99%
- 1 ppm gall rating (Meloidogyne incognita [4]; Table 1C test a): 1 (1=6-20%)
- 1 ppm gall rating (Meloidogyne incognita [4]; Table 1C test c): 1 (1=6-20%)
- RW28 root weight at 28 days after treatment (Meloidogyne incognita [5]; 2 kg ai/ha, squash): 7.5
- RW43 root weight at 43 days after treatment (Meloidogyne incognita [5]; 2 kg ai/ha, squash): 13.0
- TW28 top weight at 28 days after treatment (Meloidogyne incognita [5]; 2 kg ai/ha, squash): 250.8
- control of root galling compared with oxamyl at an equivalent rate (Meloidogyne incognita [5]; both the 28 day and the 43 day time point): statistically better than oxamyl
- pest or weed control at 4000 g/ha (root knot nematode; [7]): 50%
- pest or weed control at 8000 g/ha (root knot nematode; [7]): 80%
- acute oral toxicity: mortality and signs ([6]; 500 mg/kg oral, three female mice, observed up to 14 days): two animals died within three days
- oral toxicity ([6]; mice, estimate based on the 50 and 500 mg/kg studies): lower than 500 mg/kg

Structure (SMILES): Brc1ccc(-c2noc(-c3ccco3)n2)cc1 [compound 5467]
- percent control (galling reduction), Radex 1 mg/kg (root knot nematode (RKN) [1]): 88%
- pest or weed control at 4000 g/ha (root knot nematode; [8]): 76%
- percent control (galling reduction), 2 kg/ha rate (root knot nematode; [9]): 71^a percent
- pest or weed control at 8000 g/ha (root knot nematode; [9]): 100%
- percent control (galling reduction), Acetone 1 mg/kg (root knot nematode (RKN) [2]): 73%

Structure (SMILES): Cc1cc(Br)ccc1-c1noc(-c2ccco2)n1 [compound 5825]
- percent control (galling reduction), Radex 1 mg/kg (root knot nematode (RKN) [1]): 96%
- EC50 (C. elegans; 24 h, L1 larvae, one day of exposure, read-out: EC50 L1 1D): 0.4 µg/mL (≈ 1.31 µM)
- EC50 (C. elegans; 24 h, L4 larvae, one day of exposure, read-out: EC50 L4 1D): 1.6 µg/mL (≈ 5.24 µM)
- EC50 (C. elegans; 48 h, L1 larvae, two days of exposure, read-out: EC50 L1 2D): 0.4 µg/mL (≈ 1.31 µM)
- EC50 (C. elegans; 48 h, L4 larvae, two days of exposure, read-out: EC50 L4 2D): 1.6 µg/mL (≈ 5.24 µM)
- EC50 (C. elegans; 72 h, L1 larvae, three days of exposure, read-out: EC50 L1 3D): 0.4 µg/mL (≈ 1.31 µM)
- EC50 (C. elegans; 72 h, L4 larvae, three days, effects on the second generation larvae, read-out: EC50 L4 3D (F1)): 1.6 µg/mL (≈ 5.24 µM)
- pest or weed control at 4000 g/ha (root knot nematode; [8]): 98%
- percent control (galling reduction), 2 kg/ha rate (root knot nematode; [9]): 69^a percent
- pest or weed control at 8000 g/ha (root knot nematode; [9]): 96%
- percent control (galling reduction) relative to the control blank treatment (root knot nematode (RKN) [2]; 0 day treatment, 0.1 kg/ha, test a): 50^a percent
- percent control (galling reduction), Acetone 1 mg/kg (root knot nematode (RKN) [2]): 96%
